Measurements published in ChEMBL document CHEMBL3603734, “Design and biological evaluation of novel quinolone-based metronidazole derivatives as potent Cu(2+) mediated DNA-targeting antibacterial agents” (Bioorg Med Chem Lett, 2015).
Converted amounts (≈) assume the structure as drawn.

How the values were obtained:
[1] = system: Staphylococcus aureus; test: Antibacterial activity against Staphylococcus aureus ATCC 25923 after 24 hrs by microbroth dilution method; assay type: functional; conditions: ATCC 25923, 24 h
[2] = system: Staphylococcus aureus; test: Antibacterial activity against methicillin-resistant Staphylococcus aureus N315 after 24 hrs by microbroth dilution method; assay type: functional; conditions: N315, 24 h
[3] = system: Pichia norvegensis; test: Antifungal activity against Candida mycoderma ATCC 9888 after 24 hrs by microbroth dilution method; assay type: functional; conditions: ATCC 9888, 24 h
[4] = system: Salmonella enterica; test: Antibacterial activity against Salmonella enterica ATCC 14028 after 24 hrs by microbroth dilution method; assay type: functional; conditions: ATCC 14028, 24 h
[5] = system: Aspergillus flavus; test: Antifungal activity against Aspergillus flavus ATCC 204304 after 24 hrs by microbroth dilution method; assay type: functional; conditions: ATCC 204304, 24 h
[6] = system: Candida albicans; test: Antifungal activity against Candida albicans ATCC 10231 after 24 hrs by microbroth dilution method; assay type: functional; conditions: ATCC 10231, 24 h
[7] = Ionization constant, pKa of the compound by UV spectroscopic analysis; assay type: physicochemical
[8] = system: Micrococcus luteus; test: Antibacterial activity against Micrococcus luteus ATCC 4698 after 24 hrs by microbroth dilution method; assay type: functional; conditions: NCTC 2665, 24 h
[9] = system: Cyberlindnera jadinii; test: Antifungal activity against Candida utilis ATCC 9950 after 24 hrs by microbroth dilution method; assay type: functional; conditions: Williopsis jadinii, ATCC 9950, 24 h
[10] = system: Saccharomyces cerevisiae; test: Antifungal activity against Saccharomyces cerevisiae ATCC 9763 after 24 hrs by microbroth dilution method; assay type: functional; conditions: ATCC 9763, 24 h
[11] = system: Pseudomonas aeruginosa; test: Antibacterial activity against Pseudomonas aeruginosa ATCC 27853 after 24 hrs by microbroth dilution method; assay type: functional; conditions: ATCC 27853, 24 h
[12] = system: Escherichia coli; test: Antibacterial activity against Escherichia coli JM109 after 24 hrs by microbroth dilution method; assay type: functional; conditions: JM109, 24 h
[13] = system: Bacillus spizizenii; test: Antibacterial activity against Bacillus subtilis ATCC 6633 after 24 hrs by microbroth dilution method; assay type: functional; conditions: ATCC 6633, 24 h
[14] = system: Bacillus; test: Antibacterial activity against Bacillus proteus ATCC 13315 after 24 hrs by microbroth dilution method; assay type: functional; conditions: ATCC 13315, 24 h

**Q.** Which results are given for `Cc1nc(N2CCOCC2)c([N+](=O)[O-])n1CC(O)CN1CCN(c2cc3c(cc2F)c(=O)c(C(=O)O)cn3C2CC2)CC1` (centres undefined)?
**A.** MIC [1]: 16 µg/mL (≈ 26.7 µM); MIC [2]: 4 µg/mL (≈ 6.67 µM); MIC [3]: 128 µg/mL (≈ 213 µM); MIC [4]: 8 µg/mL (≈ 13.3 µM); MIC [5]: 8 µg/mL (≈ 13.3 µM); MIC [6]: 32 µg/mL (≈ 53.4 µM); pKa [7]: 6.77; MIC [8]: 16 µg/mL (≈ 26.7 µM); MIC [9]: 4 µg/mL (≈ 6.67 µM); MIC [10]: 16 µg/mL (≈ 26.7 µM); MIC [11]: 0.5 µg/mL (≈ 0.834 µM); MIC [12]: 16 µg/mL (≈ 26.7 µM); MIC [13]: 8 µg/mL (≈ 13.3 µM); MIC [14]: 4 µg/mL (≈ 6.67 µM)

**Q.** Which MIC [1] does the source give for `CCn1cc(C(=O)O)c(=O)c2cc(F)c(N3CCNCC3)cc21` [NORFLOXACIN] here?
**A.** The MIC was 2 µg/mL (≈ 6.26 µM).

**Q.** What about the MIC [2] of the same compound?
**A.** Its MIC is 2 µg/mL (≈ 6.26 µM).

**Q.** And the MIC [4]?
**A.** The MIC was 1 µg/mL (≈ 3.13 µM).

**Q.** And the MIC [8]?
**A.** Its MIC is 2 µg/mL (≈ 6.26 µM).

**Q.** And the MIC [11]?
**A.** Its MIC is 4 µg/mL (≈ 12.5 µM).

**Q.** And the MIC [12]?
**A.** Its MIC is 2 µg/mL (≈ 6.26 µM).

**Q.** And the MIC [13]?
**A.** The MIC was 1 µg/mL (≈ 3.13 µM).

**Q.** What about the MIC [14] of the same compound?
**A.** Its MIC is 8 µg/mL (≈ 25.1 µM).

**Q.** Which MIC [3] does the source give for `OC(Cn1cncn1)(Cn1cncn1)c1ccc(F)cc1F` [FLUCONAZOLE] here?
**A.** Its MIC is 4 µg/mL (≈ 13.1 µM).

**Q.** And the MIC [5]?
**A.** The MIC was 256 µg/mL (≈ 836 µM).

**Q.** What about the MIC [6] of the same compound?
**A.** The MIC was 1 µg/mL (≈ 3.27 µM).

**Q.** What about the MIC [9] of the same compound?
**A.** The MIC was 8 µg/mL (≈ 26.1 µM).

**Q.** And the MIC [10]?
**A.** The MIC was 16 µg/mL (≈ 52.2 µM).

**Q.** With `O=C(O)c1cn(C2CC2)c2cc(N3CCNCC3)c(F)cc2c1=O` [CIPROFLOXACIN] as the compound, how does the MIC [4] read?
**A.** The MIC was 1 µg/mL (≈ 3.02 µM).

**Q.** And the MIC [11]?
**A.** The MIC was 1 µg/mL (≈ 3.02 µM).

**Q.** And the MIC [13]?
**A.** The MIC was 1 µg/mL (≈ 3.02 µM).

**Q.** And the MIC [14]?
**A.** Its MIC is 1 µg/mL (≈ 3.02 µM).

**Q.** Which MIC [1] does the source give for `NC1CCN(c2c(F)cc3c(=O)c(C(=O)O)cn(C4CC4)c3c2Cl)C1` (centres undefined) [CLINAFLOXACIN] here?
**A.** Its MIC is 0.5 µg/mL (≈ 1.37 µM).

**Q.** And the MIC [2]?
**A.** The MIC was 1 µg/mL (≈ 2.73 µM).

**Q.** What about the MIC [4] of the same compound?
**A.** Its MIC is 1 µg/mL (≈ 2.73 µM).

**Q.** And the MIC [8]?
**A.** The MIC was 0.5 µg/mL (≈ 1.37 µM).

**Q.** And the MIC [11]?
**A.** Its MIC is 1 µg/mL (≈ 2.73 µM).

**Q.** What about the MIC [12] of the same compound?
**A.** Its MIC is 1 µg/mL (≈ 2.73 µM).

**Q.** And the MIC [13]?
**A.** The MIC was 0.5 µg/mL (≈ 1.37 µM).

**Q.** What about the MIC [14] of the same compound?
**A.** The MIC was 0.5 µg/mL (≈ 1.37 µM).

**Q.** Which MIC [1] does the source give for `CCn1cc(C(=O)O)c(=O)c2cc(F)c(N3CCN(CC(O)Cn4c(C)nc(N5CCCC5)c4[N+](=O)[O-])CC3)cc21` (centres undefined) here?
**A.** The MIC was 64 µg/mL (≈ 112 µM).

**Q.** And the MIC [2]?
**A.** The MIC was 32 µg/mL (≈ 56 µM).

**Q.** What about the MIC [3] of the same compound?
**A.** The MIC was 16 µg/mL (≈ 28 µM).

**Q.** And the MIC [4]?
**A.** Its MIC is 64 µg/mL (≈ 112 µM).

**Q.** And the MIC [5]?
**A.** Its MIC is 16 µg/mL (≈ 28 µM).

**Q.** And the MIC [6]?
**A.** The MIC was 32 µg/mL (≈ 56 µM).

**Q.** What about the pKa [7] of the same compound?
**A.** Its pKa is 6.68.

**Q.** What about the MIC [8] of the same compound?
**A.** Its MIC is 64 µg/mL (≈ 112 µM).

**Q.** What about the MIC [9] of the same compound?
**A.** Its MIC is 32 µg/mL (≈ 56 µM).

**Q.** And the MIC [10]?
**A.** The MIC was 8 µg/mL (≈ 14 µM).

**Q.** And the MIC [11]?
**A.** The MIC was 4 µg/mL (≈ 7 µM).

**Q.** And the MIC [12]?
**A.** The MIC was 128 µg/mL (≈ 224 µM).

**Q.** And the MIC [13]?
**A.** Its MIC is 64 µg/mL (≈ 112 µM).

**Q.** What about the MIC [14] of the same compound?
**A.** The MIC was 64 µg/mL (≈ 112 µM).

**Q.** With `CCn1cc(C(=O)O)c(=O)c2cc(F)c(N3CCN(CC(O)Cn4c([N+](=O)[O-])cnc4C)CC3)cc21` (centres undefined) as the compound, how does the MIC [1] read?
**A.** The MIC was 16 µg/mL (≈ 31.8 µM).

**Q.** What about the MIC [2] of the same compound?
**A.** The MIC was 4 µg/mL (≈ 7.96 µM).

**Q.** What about the MIC [3] of the same compound?
**A.** Its MIC is 64 µg/mL (≈ 127 µM).

**Q.** What about the MIC [4] of the same compound?
**A.** The MIC was 16 µg/mL (≈ 31.8 µM).

**Q.** What about the MIC [5] of the same compound?
**A.** Its MIC is 32 µg/mL (≈ 63.7 µM).

**Q.** What about the MIC [6] of the same compound?
**A.** The MIC was 128 µg/mL (≈ 255 µM).

**Q.** And the pKa [7]?
**A.** Its pKa is 6.57.

**Q.** What about the MIC [8] of the same compound?
**A.** The MIC was 16 µg/mL (≈ 31.8 µM).

**Q.** And the MIC [9]?
**A.** Its MIC is 64 µg/mL (≈ 127 µM).

**Q.** And the MIC [10]?
**A.** Its MIC is 32 µg/mL (≈ 63.7 µM).

**Q.** And the MIC [11]?
**A.** The MIC was 2 µg/mL (≈ 3.98 µM).

**Q.** What about the MIC [12] of the same compound?
**A.** The MIC was 32 µg/mL (≈ 63.7 µM).

**Q.** What about the MIC [13] of the same compound?
**A.** The MIC was 16 µg/mL (≈ 31.8 µM).

**Q.** And the MIC [14]?
**A.** The MIC was 16 µg/mL (≈ 31.8 µM).

**Q.** Which results are given for `Cc1ncc([N+](=O)[O-])n1CC(O)CN1CCN(c2cc3c(cc2F)c(=O)c(C(=O)O)cn3C2CC2)CC1` (centres undefined)?
**A.** MIC [1]: 16 µg/mL (≈ 31.1 µM); MIC [2]: 2 µg/mL (≈ 3.89 µM); MIC [3]: 64 µg/mL (≈ 124 µM); MIC [4]: 4 µg/mL (≈ 7.77 µM); MIC [5]: 16 µg/mL (≈ 31.1 µM); MIC [6]: 128 µg/mL (≈ 249 µM); pKa [7]: 6.67; MIC [8]: 8 µg/mL (≈ 15.5 µM); MIC [9]: 32 µg/mL (≈ 62.2 µM); MIC [10]: 32 µg/mL (≈ 62.2 µM); MIC [11]: 0.5 µg/mL (≈ 0.972 µM); MIC [12]: 16 µg/mL (≈ 31.1 µM); MIC [13]: 4 µg/mL (≈ 7.77 µM); MIC [14]: 4 µg/mL (≈ 7.77 µM)

**Q.** With `O=C(O)c1cn(C2CC2)c2c(Cl)c(NC3CCN(CC4CO4)C3)c(F)cc2c1=O` (centres undefined) as the compound, how does the MIC [1] read?
**A.** The MIC was 0.5 µg/mL (≈ 1.19 µM).

**Q.** What about the MIC [2] of the same compound?
**A.** The MIC was 2 µg/mL (≈ 4.74 µM).

**Q.** What about the MIC [3] of the same compound?
**A.** The MIC was 2 µg/mL (≈ 4.74 µM).

**Q.** And the MIC [4]?
**A.** The MIC was 1 µg/mL (≈ 2.37 µM).

**Q.** And the MIC [5]?
**A.** Its MIC is 0.5 µg/mL (≈ 1.19 µM).

**Q.** What about the MIC [6] of the same compound?
**A.** The MIC was 2 µg/mL (≈ 4.74 µM).

**Q.** And the MIC [8]?
**A.** The MIC was 0.25 µg/mL (≈ 0.593 µM).

**Q.** And the MIC [9]?
**A.** Its MIC is 0.5 µg/mL (≈ 1.19 µM).

**Q.** And the MIC [10]?
**A.** The MIC was 0.25 µg/mL (≈ 0.593 µM).

**Q.** What about the MIC [11] of the same compound?
**A.** Its MIC is 0.5 µg/mL (≈ 1.19 µM).

**Q.** And the MIC [12]?
**A.** The MIC was 0.5 µg/mL (≈ 1.19 µM).

**Q.** What about the MIC [13] of the same compound?
**A.** The MIC was 0.25 µg/mL (≈ 0.593 µM).

**Q.** And the MIC [14]?
**A.** Its MIC is 0.25 µg/mL (≈ 0.593 µM).
